Common to all, as to type: cell-based
Assay [1] has as its target T1, KRAS G12D-cRAF (Homo sapiens, UniProt P01116, G12D).
T1 construct: expressed in transfected cells
Kind of assay: Cellular KRAS G12D-cRAF Binding Inhibition Assay (NanoBRET, AD293 stable cells). The settings on record: 3 h incubation, read-out: NanoBRET KRAS G12D. In a few lines: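 IC50 values derive from fitted % inhibition, normalised to maximum signal and medium-only blank. The read-out is NanoBRET between KRAS G12D-NanoLuc (donor) and cRAF RBD-HaloTag labelled with the 618 ligand (acceptor), in live stably transfected AD293 cells at 1×10^4/well.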
In general terms: In BRET a luciferase serves as donor, and the signal depends on an acceptor being close.

The subject of assay [2] is KRAS-G12V mutant tumor cells SW620. Kind of assay: Cell Proliferation Inhibition Assay (SW620), Cell-titer GLO, 96 h. The following applies: Homo sapiens, SW-620, 96 h, read-out: SW620(G12V). Summed up:
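Readout: Cell-titer GLO luminescence after 96 h at 37°C, converted to percent inhibition against 0.5% DMSO and blank controls, with IC50 from curve fit. Low-attachment SW620 cultures (1×10^3 cells/well) were dosed at 10000–0.03 nM final.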

For assay [3], the target named is T2, KRAS G12V-cRAF (Homo sapiens, UniProt P01116, G12V).
T2 construct: expressed in transfected cells
T2 sequence (P01116 1-188 isoform P01116-2 G12V): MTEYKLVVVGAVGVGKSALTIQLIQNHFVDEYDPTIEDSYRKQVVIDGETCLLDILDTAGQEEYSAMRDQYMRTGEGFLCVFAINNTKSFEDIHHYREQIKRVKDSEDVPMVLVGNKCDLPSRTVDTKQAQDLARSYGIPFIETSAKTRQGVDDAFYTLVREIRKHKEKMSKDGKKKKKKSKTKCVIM
Kind of assay: Cellular KRAS G12V-cRAF Binding Inhibition Assay (NanoBRET, AD293 stable cells). The following applies: 3 h incubation, read-out: NanoBRET KRAS G12V. In a few lines: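 Binding measured as BRET between NanoLuc and HaloTag-bound NanoBRET 618 ligand (added overnight) in stably expressing AD293 cells. Signals were converted to percent inhibition against max and blank wells and fitted for IC50.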

For assay [4], the system named is KRAS-G12D mutant tumor cells AGS. The assay can be described thus: Cell Proliferation Inhibition Assay (AGS), Cell-titer GLO, 96 h. The settings on record: Homo sapiens, AGS, 96 h, read-out: AGS(G12D). In a few lines:
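Inhibition % was derived from CellTiter-Glo luminescence (max minus measured, over max minus blank) and fitted to give IC50. Cells were KRAS-G12D AGS in low-attachment wells, treated for 96 h at 37°C.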

The mark [5] stands for this setting: SW620 cells, 96 h incubation, Cell-titer GLO.
Where [6] appears, read: AGS cells, 96 h incubation, Cell-titer GLO.

Read-outs that look alike come from different tables or passages of the source.

T1 sequence (P01116 1-188 isoform P01116-2 G12D): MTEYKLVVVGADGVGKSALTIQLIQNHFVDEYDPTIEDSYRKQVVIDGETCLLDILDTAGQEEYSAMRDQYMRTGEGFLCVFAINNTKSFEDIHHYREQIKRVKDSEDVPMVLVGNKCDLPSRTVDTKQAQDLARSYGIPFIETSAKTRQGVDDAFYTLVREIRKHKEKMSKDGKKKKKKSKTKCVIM

With `CC1OCCCn2c(c3c4cc(ccc42)-c2csc(n2)CC(NC(=O)C2CC2C(F)F)C(=O)N2CCCC(N2)C(=O)OCC(C)(C)C3)-c2cc(N3CCN(C4CN(C)C4)CC3)cnc21` [Example 108, (1S,2S)-2-(difluoromethyl)-N-((1^5S,6^3S,4S,Z)-1^5,10,10-trimethyl-1^2-(4-(1-methylazetidin-3-yl)piperazin-1-yl)-5,7-dioxo-1^8, 1^9,6^1,6^2,6^3,6^4,6^5 ,6^6-octahydro-1^5H,1^7H-8-oxa-1(13,15)-pyrido[3',2':7,8][1,5]oxazonino[5,6-a]indola-2(4,2)-thiazola-6(1,3)-pyridazinacycloundecaphane-4-yl)cycloprop ane-1-carboxamide], the IC50 in assay [1] was determined as 6.1 nM; in assay [2], 0.28 nM; in assay [3], 37.9 nM; in assay [4], 0.58 nM.
`CC1OCCCn2c(c3c4cc(ccc42)-c2csc(n2)CC(NC(=O)C2CC2C(F)F)C(=O)N2CCCC(N2)C(=O)OCC(C)(C)C3)-c2cc(N3CCN(C4CCOCC4)CC3)cnc21` [Example 109, (1S,2S)-2-(difluoromethyl)-N-((1^5S,6^3S,4S,Z)-1^5,10,10-trimethyl-5,7-dioxo-1^2-(4-(tetrahydro-2H -pyran-4-yl)piperazin-1-yl)-18, 1^9,6^1,6^2,6^3 ,6^4,6^5,6^6-octahydro-1^5H,1^7H-8-oxa-1(13,15)-pyrido[3',2' :7,8][1,5]oxazonino[5,6-a]indola-2(4,2)-thiazola-6(1,3)-pyridazinacycloundecaphane-4-yl)cyclo propane-1-carboxamide]: the IC50 in assay [1] stood at 6.2 nM; in assay [2] (setting [5]) it was 0.2 nM; in assay [3] it was 14.9 nM; in assay [4] (setting [6]), 1.02 nM.
On the same counts, the results for `CC1OCCCn2c(c3c4cc(ccc42)-c2csc(n2)CC(NC(=O)C2CC2C(F)F)C(=O)N2CCCC(N2)C(=O)OCC(C)(C)C3)-c2cc(N3CCN4CCOCC4C3)cnc21` [Example 110, (1S,2S)-2-(difluoromethyl)-N-((1^5S,6^3S,4S,Z)-1^2-((S)-hexahydropyrazino[2,1-c][1,4]oxazin-8(1 H)-yl)-1^5,10,10-trimethyl-5,7-dioxo-1^8,1^9,6^1,6^2,6^3,6^4,6^5,6^6-octahydro-1^5H,1^7H-8-oxa-1(13,15)-pyrido[3',2':7,8][1,5]oxazonino[5,6-a]indola-2(4,2)-thiazola-6(1,3)-pyridazinacycloundecaphane-4-yl)cyclopropane-1-carboxamide] are 4.17 nM, 0.15 nM, 14 nM and 1.12 nM.
In the same order, the values of `CC1OCCCn2c(c3c4cc(ccc42)-c2csc(n2)CC(NC(=O)C2CC2C(F)F)C(=O)N2CCCC(N2)C(=O)OCC(C)(C)C3)-c2cc(N3CCNCC3)cnc21` [Example 112, (1S,2S)-2-(difluoromethyl)-N-((1^5S,6^3S,4S,Z)-1^5,10,10-trimethyl-5,7-dioxo-1^2-(piperazin-1-yl)-1 ^8,1^9,6^1,6^2,6^3,6^4,6^5,6^6-octahydro-1^5H,1^7H-8-oxa-1(13,15)-pyrido[3',2':7,8][1,5]oxazonino[5,6-a]indola-2(4,2)-thiazola-6(1,3)-pyridazinacycloundecaphane-4-yl)cyclopropane-1-carboxamide] are 8.39 nM, 0.34 nM, 34.2 nM and 2.68 nM.
Take `COC1CCN(c2cnc3c(c2)-c2c4c5cc(ccc5n2CCCOC3C)-c2csc(n2)CC(NC(=O)C2CC2C(F)F)C(=O)N2CCCC(N2)C(=O)OCC(C)(C)C4)CC1` [Example 113, (1S,2S)-2-(difluoromethyl)-N-((1^5S,6^3S,4S,Z)-1^2-(4-methoxypiperidin-1-yl)-1^5,10,10-trimethyl-5,7-dioxo-1^8,1^9,6^1,6^2,6^3,6^4,6^5,6^6-octahydro-1^5H, 1^7H-8-oxa-1(13,15)-pyrido[3',2':7,8][1,5]oxazonino[5,6-alindola-2(4,2)-thiazola-6(1,3)-pyridazinacycloundecaphane-4-yl)cyclopropane-1-carbox amide]: the IC50 was 7.1 nM in assay [1], 0.54 nM in assay [2] (setting [5]), 23.9 nM in assay [3] and 3.6 nM in assay [4] (setting [6]).
In the same order, the values of `CC1OCCCn2c(c3c4cc(ccc42)-c2csc(n2)CC(NC(=O)C2CC2C(F)F)C(=O)N2CCCC(N2)C(=O)OCC(C)(C)C3)-c2cc(N3CCC(F)(F)CC3)cnc21` [Example 114, (1S,2S)-2-(difluoromethyl)-N-((1^5S,6^3S,4S,Z)-1^2-(4,4-difluoropiperidin-1-yl)-1^5,10,10-trimethyl-5,7-dioxo-1^8,1^9,6^1,6^2,6^3,6^4,6^5,6^6-octahydro-1^5H, 1^7H-8-oxa-1(13,15)-pyrido[3',2':7,8][1,5]oxazonino[5,6-alindola-2(4,2)-thiazola-6(1,3)-pyridazinacycloundecaphane-4-yl)cyclopropane-1-carbox amide] are 19.4 nM, 3.4 nM, 65.8 nM and 15.7 nM.
Turning to `CC1OCCCn2c(c3c4cc(ccc42)-c2csc(n2)CC(NC(=O)C2CC2C(F)F)C(=O)N2CCCC(N2)C(=O)OCC(C)(C)C3)-c2cc(N3CC(N4CCOCC4)C3)cnc21` [Example 115, (1S,2S)-2-(difluoromethyl)-N-((1^5S,6^3S,4S,Z)-1^5,10,10-trimethyl-1^2-(3-morpholinoazetidin-1-yl) -5,7-dioxo-1^8,1^9,6^1,6^2,6^3,6^4,6^5,6^6-octahydro-1^5H,1^7H-8-oxa-1(13,15)-pyrido[3',2':7,8][1,5]oxazonino[5,6-a]indola-2(4,2)-thiazola-6(1,3)-pyridazinacycloundecaphane-4-yl)cyclopropane-1-carbox amide], the IC50 in assay [1] came to 4.28 nM; in assay [2] (setting [5]), 0.9 nM; in assay [3], 16.3 nM; in assay [4] (setting [6]), 1.72 nM.
For the compound `CC1OCCCn2c(c3c4cc(ccc42)-c2csc(n2)CC(NC(=O)C24CC(C)(C2)C4)C(=O)N2CCCC(N2)C(=O)OCC(C)(C)C3)-c2cc(N3CCOCC3)cnc21` (centres unmarked) [Example 116, 3-methyl-N-((1^5S6^3S4S,Z)-1^5,10,10-trimethyl-1^2-morpholino-5,7-dioxo-1^8,1^9,6^1,6^2,6^3,6^4,6^5,6^6-octahydro-1^5H,1^7H-8-oxa-1(13,15)-pyrido[3',2':7,8][1,5]oxazonino[5,6-a]indola-2(4,2)-thiazola-6 (1,3)-pyridazinacycloundecaphane-4-yl)bicyclo[1.1.1]pentane-1-carboxamide], the IC50 in assay [1] was 9.57 nM; in assay [2] (setting [5]), 4.1 nM; in assay [3], 37.8 nM; in assay [4] (setting [6]), 8.27 nM.
In the same order, the values of `CC1OCCCn2c(c3c4cc(ccc42)-c2csc(n2)CC(NC(=O)C2CC2C(F)F)C(=O)N2CCCC(N2)C(=O)OCC(C)(C)C3)-c2cc(N3CCCC(N(C)C)C3)cnc21` [Example 117, (1S,2S)-2-(difluoromethyl)-N-((1^5S,6^3S,4S,Z)-1^2-(3-(dimethylamino)piperidin-1-yl)-1^5,10,10-trimethyl-5,7-dioxo-1^8,1^9,6^1,6^2,6^3,6^4,6^5,6^6-octahydro-1^5H,1^7H-8-oxa-1(13,15)-pyrido[3',2':7,8][1,5]oxazonino[5,6-a]indola-2(4,2)-thiazola-6(1,3)-pyridazinacycloundecaphane-4-yl)cyclopropane-1-carboxamide] are 1.8 nM, 0.21 nM, 8.1 nM and 0.86 nM.
On the same counts, the results for `CC1OCCCn2c(c3c4cc(ccc42)-c2csc(n2)CC(NC(=O)C2CC2C)C(=O)N2CCCC(N2)C(=O)OCC(C)(C)C3)-c2cc(N3CCOCC3)cnc21` [Example 118, (1S,2S)-2-methyl-N-((1^5S,6^3S,4S,Z)-1^5,10,10-trimethyl-1^2-morpholino-5,7-dioxo-1^8,1^9,6^1,6^2,6^3,6 ^4,6^5,6^6-octahydro-1^5H,1^7H-8-oxa-1(13,15)-pyrido[3',2':7,8][1,5]oxazonino[5,6-a]indola-2(4,2)-thiazola-6(1,3)-pyridazinacycloundecaphane-4-yl)cyclopropane-1-carboxamide] are 7.2 nM, 1.5 nM, 30.6 nM and 3.77 nM.
On the same counts, the results for `CCN1CCN(c2cnc3c(c2)-c2c4c5cc(ccc5n2CCCOC3C)-c2csc(n2)CC(NC(=O)C23COC(C)(C2)C3)C(=O)N2CCCC(N2)C(=O)OCC(C)(C)C4)CC1` [Example 124, (1S,4r)-N-((1^5S,6^3S,4S,Z)-1^2-(4-ethylpiperazin-1-yl)-1^5,10,10-trimethyl-5,7-dioxo-1^8,1^9,6^1,6^2,6^3, 6^4,6^5,6^6-octahydro-1^5H,1^7H-8-oxa-1(13,15)-pyrido[3',2':7,8][1,5]oxazonino[5,6-a]indola-2(4,2)-thiazola-6(1,3)-pyridazinacycloundecaphane-4-yl)-1-methyl-2-oxabicyclo[2.1.1]hexane-4-carbox amide] are 8.38 nM, 1.45 nM, 18 nM and 4.67 nM.

Values taken from patent publication EP4800018A1, “PAN-KRAS INHIBITOR AND USE THEREOF IN MEDICINES” (Betta Pharmaceuticals Co., Ltd., priority 2023, dated 2025).
